Data reported in EP0970046B1, “N-HYDROXY-2-(ALKYL, ARYL, OR HETEROARYL SULFANYL, SULFINYL OR SULFONYL)-3-SUBSTITUTED ALKYL, ARYL OR HETEROARYLAMIDES AS MATRIX METALLOPROTEINASE INHIBITORS” (Wyeth Holdings Corporation, priority 1997, dated 1998).
Like-named read-outs stand apart in the source and are kept apart here. One block for each molecule: values may come before it.

How the values were obtained:
TACE = biological target: T1, TACE (Homo sapiens, UniProt P78536); test: Procedure for Measuring TACE Inhibition; type: biochemical; conditions: 1 µM; for inhibition at 1 µM: read-out: TACE % inhibition at 1 µM
T1 construct: purchased Immunex
T1 sequence (P78536 215-824): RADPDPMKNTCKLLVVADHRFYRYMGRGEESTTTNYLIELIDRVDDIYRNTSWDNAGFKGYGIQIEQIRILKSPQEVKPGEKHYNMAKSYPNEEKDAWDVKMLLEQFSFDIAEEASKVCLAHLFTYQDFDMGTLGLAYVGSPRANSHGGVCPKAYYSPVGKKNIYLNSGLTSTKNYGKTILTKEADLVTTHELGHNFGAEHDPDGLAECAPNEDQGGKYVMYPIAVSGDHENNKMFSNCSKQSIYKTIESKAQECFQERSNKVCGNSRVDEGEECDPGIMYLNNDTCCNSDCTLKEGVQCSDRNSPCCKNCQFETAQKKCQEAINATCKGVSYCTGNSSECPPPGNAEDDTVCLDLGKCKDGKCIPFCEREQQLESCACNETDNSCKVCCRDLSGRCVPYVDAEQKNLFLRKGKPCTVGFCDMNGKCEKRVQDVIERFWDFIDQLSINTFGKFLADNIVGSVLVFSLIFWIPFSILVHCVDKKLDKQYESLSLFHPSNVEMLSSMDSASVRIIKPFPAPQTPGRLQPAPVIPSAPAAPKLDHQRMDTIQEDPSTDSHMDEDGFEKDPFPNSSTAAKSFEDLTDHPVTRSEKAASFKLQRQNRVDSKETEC
Experimental: Using 96-well black microtiter plates, each well receives a solution composed of 10 µL TACE (Immunex, final concentration 1µg/mL), 70µL Tris buffer, pH 7.4 containing 10% glycerol (final concentration 10 mM), and 10 µL of test compound solution in DMSO (final concentration 1µM, DMSO concentration <1%) and incubated for 10 minutes at room temperature. The reaction is initiated by addition of a fluorescent peptidyl substrate (final concentration 100 µM) to each well and then shaking on a shaker for 5 sec. The reaction is read (excitation 340 nm, emission 420 nm) for 10 min. and the increase in fluorescence over time is plotted as a linear line. The slope of the line is calculated and represents the reaction rate. The linearity of the reaction rate is confirmed (r^2 >0.85). The mean (x±sem) of the control rate is calculated and compared for statistical significance (p<0.05) with drug-treated rates using Dunnett's multiple comparison test.

MMP 13 = MMP 13 (Homo sapiens, UniProt P45452); test: MMP 13 inhibition (HTS; method not described); type: biochemical; conditions: for inhibition at 0.2 µM: read-out: MMP 13 % inhibition at 0.2 µM (HTS); for inhibition at 0.036 µM: read-out: MMP 13 % inhibition at 36 nM (HTS); for inhibition at 0.036 µM / MMP 13 % inhibition at 36 nM (HTS): 36 nM

inhibition at 1 µM (TACE; Examples 110-168): -2.09%
inhibition at 0.2 µM (MMP 13; HTS): 23%
Molecule: N=C(N)NCCCC(C(=O)NO)[S+]([O-])c1cccc(F)c1 (centres unmarked) [Example 156, 2-(3-Fluorophenylsulfinyl)-5-guanidino-pentanoic acid hydroxyamide]

Molecule: O=C(NO)C(Cc1cnc[nH]1)S(=O)(=O)c1ccc(Cl)cc1 (centres unmarked) [Example 154, 2-(4-chloro-benzenesulfonyl)-N-hydroxy-3-(3H-imidazol-4-yl)-propionamide]
inhibition at 1 µM (TACE; Examples 110-168): 13.1%
inhibition at 0.2 µM (MMP 13; HTS): 89%

inhibition at 1 µM (TACE; Examples 110-168): 43.5%
inhibition at 0.2 µM (MMP 13; HTS): 15%
Molecule: CS(=O)(=O)c1ccc(S(=O)(=O)C(COCc2ccccc2)C(=O)NO)cc1 (centres unmarked) [Example 148, 3-Benzyloxy-N-hydroxy-2-(4-methanesulfonyl-benzenesulfonyl)-propionamide]

inhibition at 1 µM (TACE; Examples 169-240): 17.8%
inhibition at 0.036 µM (MMP 13; HTS): -33%
Molecule: CCCCCCC(C(=O)NO)S(=O)(=O)CC(=O)Nc1ccc2ccccc2c1 (centres unmarked) [Example 197, 2-(Naphthalen-2-ylcarbamoylmethanesulfonyl)-octanoic acid hydroxyamide]

TACE % inhibition at 1 µM (TACE; Examples 169-240): 38.2%
MMP 13 % inhibition at 36 nM (HTS) (MMP 13; HTS): 55%
Molecule: 5-Pyridin-2-yl-thiophene-2-sulfonic acid 4(1-hydroxycarbamoyl-heptylsulfinyl)-hydroxy amide [Example 237]

inhibition at 1 µM (TACE; Examples 169-240): 28.6%
inhibition at 0.036 µM (MMP 13; HTS): -9%
Molecule: CCCCCCC(C(=O)NO)S(=O)(=O)c1nc(-c2ccccc2)cs1 (centres unmarked) [Example 182, 2-(4-Phenyl-thiazole-2-sulfonyl)-octanoic acid hydroxyamide]

Molecule: N-Hydroxy-3-methyl-2-phenethylsulfinyl-butyramide [Example 117]
TACE % inhibition at 1 µM (TACE; Examples 110-168): 8.1%
MMP 13 % inhibition at 0.2 µM (HTS) (MMP 13; HTS): 7%

inhibition at 1 µM (TACE; Examples 169-240): 34.4%
inhibition at 0.036 µM (MMP 13; HTS): 29%
Molecule: CCCCCCC(Sc1ccc(NC)cc1)C(=O)NO (centres unmarked) [Example 229, 2-(4-Methylamino-phenylsulfanyl)-octanoic acid hydroxyamide]

TACE % inhibition at 1 µM (TACE; Examples 169-240): 29.4%
MMP 13 % inhibition at 36 nM (HTS) (MMP 13; HTS): 34%
Molecule: CCCCCCC(Sc1nc(-c2ccccc2)cs1)C(=O)NO (centres unmarked) [Example 172, 2-(4-Phenyl-thiazole-2-sulfanyl)-octanoic acid hydroxyamide]

Molecule: (1-Hydroxycarbamoyl-propane-1-sulfinyl)-acetic acid hydroxy amide [Example 121]
TACE % inhibition at 1 µM (TACE; Examples 110-168): 6.1%
MMP 13 % inhibition at 0.2 µM (HTS) (MMP 13; HTS): 0%

TACE % inhibition at 1 µM (TACE; Examples 169-240): 45.9%
MMP 13 % inhibition at 36 nM (HTS) (MMP 13; HTS): 54%
Molecule: 3-Bromo-2-chloro-thiophene-2-sulfonic acid 4-(1-hydroxycarbamoyl-heptylsulfonyl)-hydroxyamide [Example 239]

inhibition at 0.2 µM (MMP 13; HTS): 49%
Molecule: N=C(N)NCCCC(C(=O)NO)S(=O)(=O)c1ccccc1Br (centres unmarked) [Example 159, 2-(2-Bromosulfonyl)-5-guanidino-pentanoic acid hydroxyamide]

inhibition (MMP 13; read-out: MMP 13 % inhibition (HTS), HTS): 11%
inhibition at 0.036 µM (MMP 13; HTS): -18%
Molecule: CCCCCCC(C(=O)NO)S(=O)(=O)c1cccc2cccnc12 (centres unmarked) [Example 196, 2-(Quinoline-8-sulfonyl)-octanoic acid hydroxyamide]

inhibition at 0.036 µM (MMP 13; HTS): -10%
Molecule: CCCCCCC(Sc1ccc(OCc2ccccc2)cc1)C(=O)NO (centres unmarked) [Example 199, 2-(4-Benzyloxy-phenylsulfanyl)-octanoic acid hydroxyamide]

Molecule: CCCCCCCCC(C(=O)NO)S(=O)(=O)c1ccc(S(C)(=O)=O)cc1 (centres unmarked) [Example 145, 2-(4-methanesulfonyl-benzenesulfonyl)decanoic acid hydroxamide]
inhibition at 0.2 µM (MMP 13; HTS): 45%

inhibition at 0.036 µM (MMP 13; HTS): 22%
Molecule: CCCCCCC(C(=O)NO)S(=O)(=O)c1ccc(OS(=O)(=O)c2ccccc2[N+](=O)[O-])cc1 (centres unmarked) [Example 238, 2-Nitro-benzenesulfonic acid 4-(1-hydroxycarbamoyl-heptylsulfonyl)-hydroxyamide]

Molecule: O=C(NO)C(Cc1cnc[nH]1)Sc1ccccc1Br (centres unmarked) [Example 152, 2-(2-bromo-benzenesulfanyl)-N-hydroxy-3-(3H-imidazol-4-yl)-propionamide]
inhibition at 0.2 µM (MMP 13; HTS): 9%

Molecule: (1-Hydroxycarbamoyl-propane-1-sulfinyl)-propionic acid hydroxyamide [Example 123]
MMP 13 % inhibition at 0.2 µM (HTS) (MMP 13; HTS): 0%

inhibition at 0.036 µM (MMP 13; HTS): 18%
Molecule: CCCCCCC(SCCc1ccccn1)C(=O)NO (centres unmarked) [Example 173, 2-(2-Pyridin-2-yl-ethylsulfanyl)-octanoic acid hydroxyamide]

Molecule: CSc1ccc(SC(COCc2ccccc2)C(=O)NO)cc1 (centres unmarked) [Example 146, 3-benzyloxy-N-hydroxy-2-(4-methanesulfanyl-benzenesulfanyl)-propionamide]
inhibition at 0.2 µM (MMP 13; HTS): 68%

Molecule: CCCCCCC(C(=O)NO)S(=O)(=O)c1[nH]c2ccccc2[n+]1[O-] (centres unmarked) [Example 181, 2-(3-Oxy-1H-benzimidazole-2-sulfonyl)-octanoic acid hydroxyamide]
inhibition at 0.036 µM (MMP 13; HTS): 6%
inhibition at 360 µM (MMP 13; read-out: MMP 13 % inhibition at 0.36 mM (HTS)): 35%
inhibition at 3600 µM (MMP 13; read-out: MMP 13 % inhibition at 3.6 mM (HTS)): 62%

inhibition at 0.2 µM (MMP 13; HTS): 19%
Molecule: N=C(N)NCCCC(Sc1ccccc1Br)C(=O)NO (centres unmarked) [Example 157, 2-(2-Bromosulfanyl)-5-guanidino-pentanoic acid hydroxyamide]

inhibition at 0.2 µM (MMP 13; HTS): 74%
Molecule: CCCCCCC(C(=O)NO)S(=O)(=O)c1cccc(OC)c1 (centres unmarked) [Example 164, 2-(3-Methoxybenzenesulfonyl)-octanoic acid hydroxyamide]

inhibition at 0.2 µM (MMP 13; HTS): 21%
Molecule: CCCCCCC(Sc1nc2ccccc2[nH]1)C(=O)NO (centres unmarked) [Example 168, 2-(2-Benzimidazol-2-ylsulfanyl)-octanoic acid hydroxyamide]

inhibition at 0.2 µM (MMP 13; HTS): 31%
Molecule: N=C(N)NCCCC(Sc1cccc(F)c1)C(=O)NO (centres unmarked) [Example 155, 2-(3-fluorophenylsulfanyl)-5-guanidino-pentanoic acid hydroxyamide]

Molecule: CCCCCCCCC(C(=O)NO)[S+]([O-])c1ccc([S+](C)[O-])cc1 (centres unmarked) [Example 144, 2-(4-methanesulfinyl-benzenesulfinyl)decanoic acid hydroxamide]
inhibition at 0.2 µM (MMP 13; HTS): 38%

inhibition at 0.2 µM (MMP 13; HTS): 8%
Molecule: O=C(CCC(C(=O)NO)S(=O)(=O)c1ccccc1C(F)(F)F)NO (centres unmarked) [Example 139, 4-Hydroxycarbamoyl-4-(2-trifluoromethyl-benzenesulfonyl)-butyric acid hydroxyamide]

inhibition at 0.2 µM (MMP 13; HTS): 71%
Molecule: CCCCCCC(Sc1ccc(OC)c(OC)c1)C(=O)NO (centres unmarked) [Example 165, 2-(3,4-Dimethoxybenzenesulfanyl)-octanoic acid hydroxyamide]

Molecule: CCCCCCCCC(C(=O)NO)[S+]([O-])c1cccc(OC)c1 (centres unmarked) [Example 141, 2-(3-Methoxy-benzenesulfinyl)decanoic acid hydroxamide]
inhibition at 0.2 µM (MMP 13; HTS): 32%

Molecule: CCCCCCCCC(C(=O)NO)S(=O)(=O)c1cccc(OC)c1 (centres unmarked) [Example 142, 2-(3-Methoxy-benzenesulfonyl)decanoic acid hydroxamide]
inhibition at 0.2 µM (MMP 13; HTS): 69%

inhibition at 0.2 µM (MMP 13; HTS): 20%
Molecule: O=C(CCC(C(=O)NO)[S+]([O-])c1ccccc1C(F)(F)F)NO (centres unmarked) [Example 138, 4-Hydroxycarbamoyl-4-(2-trifluoromethyl-benzenesulfinyl)-butyric acid hydroxyamide]

inhibition at 0.2 µM (MMP 13; HTS): 14%
Molecule: CCCCCCC(Sc1cc(Cl)ccc1Cl)C(=O)NO (centres unmarked) [Example 160, 2-(2,5-dichlorobenzenesulfanyl)-octanoic acid hydroxyamide]

inhibition at 0.2 µM (MMP 13; HTS): 71%
Molecule: COC(=O)CCC(Sc1ccc(SC)cc1)C(=O)NO (centres unmarked) [Example 131, 4-Hydroxycarbamoyl-4-(4-methanesulfanyl-phenylsulfanyl)-butyric acid methyl ester]

inhibition at 0.036 µM (MMP 13; HTS): -39%
Molecule: CCCCCCC(C(=O)NO)S(=O)(=O)CC1NC(=O)NC1=O (centres unmarked) [Example 198, 2-(2,5-Dioxo-imidazolidin-4-ylmethylsulfonyl)-octanoic acid hydroxyamide]

Molecule: CCCCCCCCC(Sc1cccc(OC)c1)C(=O)NO (centres unmarked) [Example 140, 2-(3-methoxy-benzenesulfanyl)decanoic acid hydroxamide]
inhibition at 0.2 µM (MMP 13; HTS): 29%

inhibition at 0.036 µM (MMP 13; HTS): 32%
Molecule: CCCCCCC(Sc1nc2ccccc2s1)C(=O)NO (centres unmarked) [Example 170, 2-(2-Benzothiazol-2-ylsulfanyl)-octanoic acid hydroxyamide]

inhibition at 0.036 µM (MMP 13; HTS): 5%
Molecule: CCCCCCC(C(=O)NO)[S+]([O-])c1nc2ccccc2[nH]1 (centres unmarked) [Example 177, 2-(2-Benzimidazol-2-ylsulfinyl)-octanoic acid hydroxyamide]

inhibition at 0.2 µM (MMP 13; HTS): 90%
Molecule: CC(=O)Nc1ccc([S+]([O-])C(Cc2ccccc2)C(=O)NO)cc1 (centres unmarked) [Example 129, 2-(4-Acetylamino-benzenesulfinyl)-N-hydroxy-3-phenyl-propionamide]

inhibition at 0.2 µM (MMP 13; HTS): 33%
Molecule: N=C(N)NCCCC(C(=O)NO)[S+]([O-])c1ccccc1Br (centres unmarked) [Example 158, 2-(2-Bromosulfinyl)-5-guanidino-pentanoic acid hydroxyamide]

inhibition at 0.036 µM (MMP 13; HTS): -9%
Molecule: CCCCCCC(C(=O)NO)S(=O)(=O)c1nccs1 (centres unmarked) [Example 195, 2-(Thiazol-2-ylsulfonyl)-octanoic acid hydroxyamide]

inhibition at 0.2 µM (MMP 13; HTS): 13%
Molecule: CCCCCCC(Sc1cccc(OC)c1)C(=O)NO (centres unmarked) [Example 162, 2-(3-Methoxybenzenesulfanyl)-ocranoic acid hydroxyamide]

Molecule: CCC(C(=O)NO)S(=O)(=O)C(C)C(=O)NO (centres unmarked) [Example 124, (1-Hydroxycarbamoyl-propane-1-sulfonyl)-propionic acid hydroxyamide]
MMP 13 % inhibition at 0.2 µM (HTS) (MMP 13; HTS): 0%
